Experiments:
E. coli 14 = experiment: MIC, liquid medium test tube series dilution test; format: cell-based; details: E. coli 14, 24 hours, 37°C
Method in brief: (§1)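 Tube dilution, liquid complete medium, 37°C/24 h; MIC = non-turbid tube; units/ml.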

E. coli 183/58 = experiment: MIC, liquid medium test tube series dilution test; format: cell-based; details: E. coli 183/58, 24 hours, 37°C
Method in brief: as §1

E. coli A 261 = experiment: MIC, liquid medium test tube series dilution test; format: cell-based; details: E. coli A 261, 24 hours, 37°C
Method in brief: as §1

E. coli C 165 = experiment: MIC, liquid medium test tube series dilution test; format: cell-based; details: E. coli C 165, 24 hours, 37°C
Method in brief: as §1

Klebsiella 63 = experiment: MIC, liquid medium test tube series dilution test; format: cell-based; details: Klebsiella 63, 24 hours, 37°C
Method in brief: as §1

[1] = system: Streptoc. faec. ATCC 9790; experiment: MIC, liquid medium test tube series dilution test; format: cell-based; details: Strep. faec. (Enterococcus) ATCC 9790, 24 hours, 37°C
Method in brief: as §1

Proteus vulg. 1017 = experiment: MIC, liquid medium test tube series dilution test; format: cell-based, Proteus vulgaris; details: Proteus vulg. 1017, 24 hours, 37°C
Method in brief: as §1

Proteus vulg. 3400 = experiment: MIC, liquid medium test tube series dilution test; format: cell-based, Proteus vulgaris; details: Proteus vulg. 3400, 24 hours, 37°C
Method in brief: as §1

Psdm. aerug. Bonn = experiment: MIC, liquid medium test tube series dilution test; format: cell-based, Pseudomonas aerug.; details: 24 hours, 37°C
Method in brief: as §1

Psdm. aerug. Walter = experiment: MIC, liquid medium test tube series dilution test; format: cell-based, Pseudomonas aerug.; details: 24 hours, 37°C
Method in brief: as §1

Staph. aureus 133 [2] = experiment: MIC, liquid medium test tube series dilution test; format: cell-based, Staphylococcus aureus; details: Staph. aureus 133, 24 hours, 37°C
Method in brief: as §1

Staph. aureus 1777 E = experiment: MIC, liquid medium test tube series dilution test; format: cell-based, Staphylococcus aureus; details: 24 hours, 37°C
Method in brief: as §1

Staph. aureus 133 [3] = experiment: Surviving mice after intraperitoneal infection and subcutaneous therapy; format: in vivo, white mice, CF1 strain; details: 2 × 200 units/mouse s.c.
Description: The experiments on animals (see Table 3) were carried out with white mice of the CF1 strain. The infection took place intraperitoneally with the particular bacterium indicated.

[4] = Acute toxicity (LD50), intravenous injection into the vein of the tail; format: in vivo; details: for LD50: mouse, in vivo, iv
From the text: Acute toxicity (LD50) in white mice after
intravenous injection into the vein of the […]

Klebsiella K 10 = experiment: MIC, liquid medium test tube series dilution test; format: cell-based; details: Klebsiella K 10, 24 hours, 37°C
Method in brief: as §1

[5] = Serum level after subcutaneous administration, measured from microbiological activity against Proteus vulgaris 1017; format: in vivo, white mice
From the text: Serum level after subcutaneous ("s.c.") administration to white mice, in units/ml of serum, measured from the microbiological activity against Proteus vulgaris 1017 (ampicillin-resistant).

[6] = i.v. into tail vein, white mice

Compound | MIC (E. coli 14) [units/ml] | MIC (E. coli 183/58) [units/ml] | MIC (E. coli A 261) [units/ml] | MIC (E. coli C 165) [units/ml] | MIC (Klebsiella 63) [units/ml] | MIC [1] [units/ml] | MIC (Proteus vulg. 1017) [units/ml] | MIC (Proteus vulg. 3400) [units/ml] | MIC (Psdm. aerug. Bonn) [units/ml] | MIC (Psdm. aerug. Walter) [units/ml] | MIC (Staph. aureus 133 [2]) [units/ml] | MIC (Staph. aureus 1777 E) [units/ml] | MIC (Klebsiella K 10) [units/ml] | further results
CN(C(=O)N[C@@H](C(=O)N[C@@H]1C(=O)N2[C@@H]1SC(C)(C)[C@@H]2C(=O)O)c1ccccc1)C(=O)C1CC=CCC1 (single isomer, unassigned) [Example 65, Sodium D(-)-α-(3-(1,2,5,6)-tetrahydrobenzoyl-3-methyl-ureido)benzylpenicillin] | < 0.78 | 1.56 | 400 | 3.12 | 12.5 | 50 | 3.12 | 6.25 | 12.5 | 12.5 | < 0.78 | 50 |  | Number of surviving mice (Staph. aureus 133 [3]; 1 day): 90%; Number of surviving mice (Staph. aureus 133 [3]; 2 days): 80%; Number of surviving mice (Staph. aureus 133 [3]; 3 days): 70%; Number of surviving mice (Staph. aureus 133 [3]; 5 days): 70%
Cc1onc(-c2c(Cl)cccc2Cl)c1C(=O)N[C@@H]1C(=O)N2[C@@H]1SC(C)(C)[C@@H]2C(=O)O [Dicycloxacillin, reference compound] |  |  |  |  |  |  |  |  |  |  |  |  |  | Acute toxicity (LD50) [4, 6]: 900 mg/kg
CN(C(=O)CCCl)C(=O)N[C@@H](C(=O)N[C@@H]1C(=O)N2[C@@H]1SC(C)(C)[C@@H]2C(=O)O)c1ccccc1 [Example 64, Sodium D(-)-α-(3-β -chloropropionyl-3-methyl-ureido)-benzylpenicillin] | 3.12 | 25 | > 400 | 25 | 100 | 100 | 25 | 100 | 25 | 50 | 1.56 | 50 | 100 | Serum level ([5]; 50.000 units s.c., 10 mins.): 50 units/ml of serum; Serum level ([5]; 50.000 units s.c., 20 mins.): 10 units/ml of serum; Serum level ([5]; 150.000 units s.c., 15 mins.): 42 units/ml of serum; Serum level ([5]; 150.000 units s.c., 30 mins.): 26 units/ml of serum; Serum level ([5]; 150.000 units s.c., 60 mins.): < 10 units/ml of serum
CN(C(=O)N[C@@H](C(=O)N[C@@H]1C(=O)N2[C@@H]1SC(C)(C)[C@@H]2C(=O)O)c1ccccc1)C(=O)c1cccs1 [Example 75, Sodium D(-)-α-(3-thenoyl-(2)-3-methyl-ureido)-benzylpenicillin] | < 0.8 |  |  |  |  |  |  |  |  |  | 0.8 |  |  | LD50 [4]: 1500 mg/kg
C=CCN(C(C)=O)C(=O)N[C@@H](C(=O)N[C@@H]1C(=O)N2[C@@H]1SC(C)(C)[C@@H]2C(=O)O)c1ccccc1 [Example 86, Sodium D(-)-α-(3-acetyl-3-allyl-ureido)-benzylpenicillin] | 12.5 | 50 | > 400 | 25 | 50 | 100 | 50 | 50 | 25 | 50 | < 0.78 |  | 100 | LD50 [4, 6]: > 3000 mg/kg
CN(C)C(=O)N(C)C(=O)N[C@@H](C(=O)N[C@@H]1C(=O)N2[C@@H]1SC(C)(C)[C@@H]2C(=O)O)c1ccccc1 [Example 94, Sodium D(-)-α-(3-dimethylaminocarbonyl-3-methyl-ureido)benzylpenicillin] | 12.5 | 100 | > 400 | 50 | 200 | 200 | 100 | 50 | 100 | 100 | 3.12 |  | 200 | LD50 [4]: 4000 mg/kg
CC1(C)S[C@@H]2[C@H](NC(=O)[C@H](NC(=O)N3CCCCC3=O)c3ccccc3)C(=O)N2[C@H]1C(=O)O [Example 134, Sodium D(-)-α-(1-piperidin-2-on-1-yl-carbonylamino)-benzylpenicillin] | 3.1 | 25 | > 400 | 25 | 200 | 100 | 12.5 | 50 | 100 | 50 | 3.1 | 200 | 50 | 
CN(C(=O)NC(C(=O)N[C@@H]1C(=O)N2[C@@H]1SC(C)(C)[C@@H]2C(=O)O)c1cccs1)C(=O)c1ccccc1Cl (stereo partly drawn) [Example 135, Sodium α-(3-o-chlorobenzoyl-3-methyl-ureido)-α-thienyl(2)-methylpenicillin] | 12.5 | 25 | 400 | 50 | 400 | 200 | 25 | 100 | 400 | 100 | < 0.8 | 100 | 100 | 
CCN(C(=O)N[C@@H](C(=O)N[C@@H]1C(=O)N2[C@@H]1SC(C)(C)[C@@H]2C(=O)O)c1ccccc1)C(=O)c1ccccc1Cl [Example 138, Sodium D(-)-α-(3-o-chlorobenzoyl-3-ethyl-ureido)-benzylpenicillin] | 6.25 | 12.5 | 200 | 25 | 50 | 50 | 25 | 100 | 25 | 100 | < 0.8 | 12.5 | 50 | 
CC1(C)S[C@@H]2[C@H](NC(=O)[C@H](NC(=O)N3CCNC3=O)c3ccccc3)C(=O)N2[C@H]1C(=O)O [Example 144 A, D(-)-α-(Imidazolidin-2-on-1-yl-carbonylamino)-benzyl-penicillin] |  |  |  |  |  |  |  |  |  |  |  |  | 50 | MIC (E. coli 14; listed as 144): 1.56 units/ml; MIC (E. coli 183/58; listed as 144): 50 units/ml; MIC (E. coli A 261; listed as 144): 400 units/ml; MIC (E. coli C 165; listed as 144): 6.25 units/ml; MIC (Klebsiella 63; listed as 144): 50 units/ml; MIC ([1]; listed as 144): 25 units/ml; MIC (Proteus vulg. 1017; listed as 144): 12 units/ml; MIC (Proteus vulg. 3400; listed as 144): 25 units/ml; MIC (Psdm. aerug. Bonn; listed as 144): 6.25 units/ml; MIC (Psdm. aerug. Walter; listed as 144): 12.5 units/ml; MIC (Staph. aureus 133 [2]; listed as 144): < 0.8 units/ml; MIC (Staph. aureus 1777 E; listed as 144): 200 units/ml
CC1(C)S[C@@H]2[C@H](NC(=O)[C@H](NC(=O)N3CCNC3=S)c3ccccc3)C(=O)N2[C@H]1C(=O)O [Example 147 A] | 12.5 | 100 | > 400 | 50 | 100 | 50 | 50 | 50 | 25 | 200 | < 0.8 | 100 | 200 | MIC (Proteus vulg. 3400; listed as 147 A): 200 units/ml

From patent US3974140A, “Ureidoacetamido-penicillins” (Bayer Aktiengesellschaft, priority 1970, dated 1976)
